Earlier results in patent US10993890B2, “Antifungal solution and foot wipe” (PELLI SKIN CO., LLC, priority 2018, dated 2021).

Tests used:
[1] = octanol/water partition coefficient of the solvent
[2] = test system: skin cells; conditions: 3% ethanol applied to skin cells over the course of two days

LogKow [1] | Compound | increase of cell death [2]
0.3792 | CC1COCO1 (centres unmarked) [4-Methyl-1,3-dioxolane] | –
– | CCO [ethanol] | 26%
−1.082 | OC1COCOC1 [5-Hydroxy-1,3-dioxane] | –
0.7709 | C1CCOCOC1 [1,3-Dioxepane] | –

Compound | LogKow [1] | increase of cell death [2]
1,3-dioxolan | −0.37 | –
